Measurements published in US20260055118A1, “VISIBLE LIGHT SENSITIVE PHOTOREMOVABLE PROTECTING GROUPS, PREPARATION PROCESS THEREOF, PHOTOACTIVATABLE CONJUGATES COMPRISING THEM AND USES THEREOF” (HUN-REN TERMÉSZETTUDOMÁNYI KUTATÓKÖZPONT, priority 2022, published 2026).
Where two headings read alike, the source gives them in different places.

What was measured:
SK-OV-3 cells [1] = assay: Live cell confocal fluorescence imaging (cell permeability, colocalization); type: cell-based, human; conditions: live SK-OV-3 cells, confocal microscopy
Description: SKOV3 (ATCC HTB-77) cells were maintained in McCoy's 5A (Modified) Medium, HEPES (Gibco 22330021) media supplemented with 10% FBS (Gibco 10500-064), 1% penicillin-streptomycin (Gibco 15140-122). The cells were cultured at 37° C. in a 5% CO2 atmosphere and passaged—using trypsin (Gibco 25300-054)—every 3-4 days up to 20 passages.
SKOV3 ([…]) cells were transferred into μ-Slide 8 well plates (Ibidi 80827) and were incubated for 40 h at 37° C. in a 5% CO2 atmosphere. After 30 min treatment with compounds X1′-SN38 and X2′—SN38 in the concentration of 1 μM and in some cases in combination with 1 nM MitoTracker Deep Red FM (Invitrogen M22426) or 1 nM LysoTracker Deep red (Invitrogen L12492) or 50 nM MitoTracker Red FM (Invitrogen M22425) or 50 nM LysoTracker red DND-99 (Invitrogen L7528). The samples were subjected to microscopy analyses. […]
Due to their high fluorescence, the cell permeability of compounds X1′-SN38 and X2′-SN38 were tested in live SK—OV-3 (human ovarian carcinoma) cells using confocal microscopy. […] The decrease of fluorescence (related to the photolysis reaction) was only observed in the irradiated area. Overall, these experiments serve as evidence for the cell permeability, biocompatibility and excellent ability of this invention to determine the localization of the photoactivatable conjugates via fluorescence microscopy.

SK-OV-3 cells [2] = assay: Cytotoxicity determination, MTT assay, with light irradiation and in the dark; type: cell-based, human
Description: A viability test was carried out to assess the toxicity of SN38 as well as the photoremovable protecting group-SN38 conjugates X1′-SN38 and X2′-SN38 after light irradiation and in the dark on SKOV3 cells. Cells were transferred into a 48-well plate (Thermo Fisher Scientific, 130187) (4,500 cells/well) and incubated for 20-24 h at 37° C. in a 5% CO2 atmosphere in McCoy's 5A (Modified) Medium, HEPES (Gibco 22330021) supplemented with 10% FBS (Gibco 10500-064), 1% penicillin-streptomycin (Gibco 15140-122). Cells were treated with compounds in the concentration range of 10^−11-10^−4 M for 90 min followed by light irradiation or kept in the dark at 37° C. in 5% CO2 atmosphere. After treatment and irradiation, cells were kept at 37° C. in 5% CO2 atmosphere for 72 hours. After the incubation period, supernatants were replaced with 0.5 mg/ml MTT (3-(4,5-dimethylthiazol-2-yl)-2,5-diphenyltetrazolium bromide; Sigma M5655-1G) solution (in complete DMEM: Dulbecco's modified Eagle's medium (DMEM, Gibco 41965-039), supplemented with 10% FBS (Gibco 10500-064), 1% penicillin-streptomycin (Gibco 15140-122), 1% Glutamax (Gibco 35050-061) and 1% sodium pyruvate (Life Technologies, Gibco 11360-070)) and incubated for 120 min at 37° C. in the dark. The insoluble formazan crystals were dissolved in 250 μl DMSO. Absorbance was detected at 540 nm using a Biotek Synergy 2 Cytation 3 imaging plate reader with Gen5 software version 3.08 (Biotek Winooski, VT, USA). Viability was expressed as percentage (n=3) of the readings of untreated control cells.
To determine phototoxic properties of compounds X1′-SN38 and X2′-SN38, standard MTT assays were performed on SK—OV-3 cells. To irradiate multiple specimens, an LED panel was custom-made for a 48-well plate consisting of 24 LEDs using green (4 W input power, λmax=549 nm half-width: 16 nm, output power: 72 mW), orange (4 W input power, λmax=605 nm half-width: 10 nm, output power: 140 mW) and red (4 W input power, λmax=658 nm half-width: 10 nm, for Q=CMe2 output power: 210 mW) LED irradiation. The board was specifically designed for the plates and offer water cooling to minimize heat shock to cells. Every second well can be irradiated with an individual LED. First, the cytotoxicity of the free active agent, SN38 was determined to be EC50 ^˜6 nM. Treatment of cells with the photoactivatable SN38 derivatives for 72 hours in the absence of light (without washing) produced moderate cytotoxic effects, sigificantly lowering the effectiveness of the active agent. This confirms that SN38 is a suitable candidate for light-activated prodrug applications. […] Reducing the irradiation time down to 10 s still produced significant phototoxicity in higher concentrations (see FIG. 8a for compound X2′-SN38) even assuming incomplete uncaging as a result of the substantial dark stability of compound X2′-SN38.

SMILES: CCc1c2c(nc3ccc(OC(=O)N(C)CCN(C)C(=O)OC(C)c4c5ccc(=[N+]6CCCC6)cc-5oc5cc(N6CCCC6)ccc45)cc13)-c1cc3c(c(=O)n1C2)COC(=O)C3(O)CC.[I-] (mixture of isomers) [X1′-SN38]
- cell permeability (SK-OV-3 cells [1]): cell permeable
- EC50 (SK-OV-3 cells [2]; dark, (green) series, read-out: Dark EC50 values): 4000 nM
- EC50 (SK-OV-3 cells [2]; dark, (orange) series, read-out: Dark EC50 values): 1100 nM
- EC50 (SK-OV-3 cells [2]; green light irradiation, 15 min, read-out: EC50 values after irradiation): 63 nM
- Photoindex (SK-OV-3 cells [2]; green light, 15 min): 64
- Photoindex (SK-OV-3 cells [2]; orange light, 5 min): 45
- EC50 (SK-OV-3 cells [2]; orange light, 5 min, read-out: EC50 values after irradiation): 23 nM
